Data from US8088433B2, “Mononuclearly filled microcapsules” (Symrise AG, priority 2001, dated 2012).

Experiments:
[1] = flavor retention of Model-flavor components in alginate capsules, short continuous vs long batch gelling (ether extraction, HRGC/MS); type: physicochemical; conditions: wet alginate capsules, 5% calcium chloride, relative to Model-flavor solution theoretically encapsulated; for Flavor Retention, Short Gel Time (continuous): dwell time 1 minute; for Flavor Retention, Long Gel Time (Batch): dwell time 2 hours
Method: 50 g sodium alginate were dissolved in 195 g demineralized water using a high speed kneading mixer of the type Ultra-Turrax. 250 g Model-flavor were dissolved in 750 g neutral oil. The Model flavor was comprised of flavor components, which cover a large spectrum of water/oil solubility as indicated by logKo/w-values, see the following Table 9.
The two solutions (alginate, flavor) were conveyed to a vibrating two-stream nozzle head with an inner diameter of 150 μm and an outer diameter of 500 μm. The flow rates were adjusted for the flavor solution to 500 g per hour and for the shell solution to 1000 g per hour, the vibration frequency was adjusted to 200 Hz.
For the preferred short continuous gelling process the formed discrete droplets fell into a pipe reactor, which was filled with 5% calcium chloride, and were so transported, that the dwell time was 1 minute.
The results of the 1 minute capsule production (corresponding to 8.3 g encapsulated flavor solution) were then dissolved in 200 ml 1% aqueous […] solution. The mixture was then extracted for 4 hours in a perforator with diethyl ether. The diethyl ether extract was analyzed using HRGC/MS. The results were evaluated based on the surface of the GC/MS peaks for the components per gram of encapsulated aroma solution.
For the batch gelled process the formed discrete droplets fell into a 5% calcium chloride containing reactor with a dwell time of 2 hours. […] The same analytical protocol was carried out as for the short gel time process.
10 g Model-flavor solution were dispersed in 200 ml 1% aqueous sodium citrate solution. The mixture was extracted in a perforator for 4 hours with diethyl ether and evaluated as described above.
The flavor retention for the respective flavor components during the short continuous gelling process and the long gel batch process were calculated on the basis of the amount of the Model-flavor solution which originally flowed through the nozzle system and theoretically was encapsulated, the results are presented in Table 10.

[2] = flavor retention of Model-flavor components in alginate capsules, drying with silicon dioxide vs fluidized bed drying; type: physicochemical; conditions: for Convective Drying: % Retention: 200 g wet capsules dried in fluidized bed dryer at 30° C., 100 m^3 per hour air flow, shell water content 62%; for Drying "water adsorbing" Substances: % Retention: 200 g wet capsules mixed 10 minutes with 100 g silicon dioxide, shell water content 45%
[3] = cited from earlier work; for Log Ko/w: components of the Model flavor, Table 9; for logPo/w / logKo/w: n-octanol/water distribution coefficient; for logKo/w: log10[co/cw], grouping of flavor substances by difficulty of encapsulation

## CC(=O)OCCC(C)C [isoamyl acetate]
[1]
  Flavor Retention, Short Gel Time (continuous): 80%
  Flavor Retention, Long Gel Time (Batch): 18.5%
[2]
  Convective Drying: % Retention: 60%
  Drying "water adsorbing" Substances: % Retention: 95%
[3]
  Log Ko/w: 2.12
  logPo/w: 2.12

## CC(=O)C(C)=O [diacetyl (butanedione), butanedione]
[3]
  logKo/w: 1.33

## C=C(C)C1CC=C(C)C(=O)C1 (stereo not shown) [carvone]
[3]
  logKo/w: 2.23

## CCOC(=O)CC [ethyl propionate]
[1]
  Flavor Retention, Short Gel Time (continuous): 61%
  Flavor Retention, Long Gel Time (Batch): 0%
[2]
  Convective Drying: % Retention: 4%
  Drying "water adsorbing" Substances: % Retention: 50%
[3]
  Log Ko/w: 1.24
  logKo/w: 1.24

## CCCCCCC1CCC(=O)O1 (stereo not shown) [gamma-decalactone]
[3]
  logKo/w: 2.42

## CCOC(=O)C(C)O (stereo not shown) [ethyl lactate]
[3]
  logKo/w: 0.88

## CC(C)CCO [isoamyl alcohol]
[3]
  logKo/w: 1.28
  logPo/w: 1.22

## C=CC(C)(O)CCC=C(C)C (stereo not shown) [linalool]
[3]
  logKo/w: 3.28

## C=C1CCC2CC1C2(C)C (stereo not drawn) [beta-pinene]
[3]
  logKo/w: 4.37

## CCCCCC(=O)OCC [ethyl-caproate]
[3]
  logKo/w: 2.83

## CCCC(=O)OCC [ethyl butyrate]
[3]
  logKo/w: 1.77
  logPo/w: 1.73

## O=Cc1ccccc1 [benzaldehyde]
[1]
  Flavor Retention, Short Gel Time (continuous): 82%
  Flavor Retention, Long Gel Time (Batch): 11%
[2]
  Convective Drying: % Retention: 52%
  Drying "water adsorbing" Substances: % Retention: 80%

## CC=O [Acetaldehyde]
[3]
  logPo/w: −0.16

## CCCCCCCC(=O)OCC [Ethylcaprylate]
[1]
  Flavor Retention, Short Gel Time (continuous): 90%
  Flavor Retention, Long Gel Time (Batch): 90%
[2]
  Convective Drying: % Retention: 65%
  Drying "water adsorbing" Substances: % Retention: 0%
[3]
  Log Ko/w: 3.9

## CCOC(C)=O [ethylacetate]
[3]
  logKo/w: 0.75
